Results published in patent US10988440B2, “FTO inhibitors” (National Institute of Biological Sciences, Beijing, priority 2015, dated 2021).

molecular target: FTO (Homo sapiens, UniProt Q9C0B1); assay: demethylation reaction catalyzed by FTO (enzymatic inhibition, HPLC-MS/MS of N6-mA and A); type: biochemical; settings: exemplary IC50 data of representative compounds; read-out: Enzymatic inhibition (IC50)
Sequence (Q9C0B1 whole entry): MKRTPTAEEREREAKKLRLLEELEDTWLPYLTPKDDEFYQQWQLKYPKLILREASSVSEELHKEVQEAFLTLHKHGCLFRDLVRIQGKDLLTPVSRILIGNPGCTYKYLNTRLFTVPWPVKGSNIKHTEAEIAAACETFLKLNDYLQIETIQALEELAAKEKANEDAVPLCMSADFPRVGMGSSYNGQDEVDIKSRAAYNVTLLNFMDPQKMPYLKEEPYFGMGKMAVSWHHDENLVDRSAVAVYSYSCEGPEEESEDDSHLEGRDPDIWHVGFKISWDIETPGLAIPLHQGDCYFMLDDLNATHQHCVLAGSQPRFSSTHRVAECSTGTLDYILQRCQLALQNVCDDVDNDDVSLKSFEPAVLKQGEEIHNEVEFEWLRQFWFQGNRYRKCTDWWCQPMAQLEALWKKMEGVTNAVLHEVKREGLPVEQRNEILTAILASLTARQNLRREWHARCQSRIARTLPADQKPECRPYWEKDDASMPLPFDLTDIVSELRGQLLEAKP

Compared with `N#C/C(C(=O)NCc1ccncn1)=C(/O)c1cc(O)c(O)c([N+](=O)[O-])c1` [Compound 673, (Z)-2-cyano-3-(3,4-dihydroxy-5-nitrophenyl)-3-hydroxy-N-(pyrimidin-4-ylmethyl)acrylamide], `COc1cc(/C(O)=C(\C#N)C(=O)NCc2ccncn2)cc([N+](=O)[O-])c1O` [Compound 674] is higher in IC50: < 1000 nM for the first, > 1000 nM for the second. The first is the more potent here.

First: N#C/C(C(=O)c1cscn1)=C(/N)c1cc(O)c(O)c([N+](=O)[O-])c1 [Compound 711N, ammonium (Z)-5-(1-amino-2-cyano-3-oxo-3-(thiazol-4-yl)prop-1-enyl)-2-hydroxy-3-nitrophenolate]
Second: N#C/C(C(=O)c1cscn1)=C(/O)c1cc(O)c(O)c([N+](=O)[O-])c1 [Compound 711, (Z)-3-(3,4-dihydroxy-5-nitrophenyl)-3-hydroxy-2-(thiazole-4-carbonyl)acrylonitrile]
The IC50 of the first is higher: > 1000 nM for the first, ~1000 nM for the second. The second is the more potent here.

First: N#C/C(=C\c1cc(O)c(O)c([N+](=O)[O-])c1)C(=O)NCC(=O)O [Compound 709, (E)-2-(2-cyano-3-(3,4-dihydroxy-5-nitrophenyl)acrylamido)acetic Acid]
Second: CCNC(=O)/C(C#N)=C/c1cc(O)c(O)c([N+](=O)[O-])c1 [Compound 684]
The IC50 of the first is lower: < 1000 nM for the first, > 1000 nM for the second. The first is the more potent here.

First: N#C/C(=C\c1cc(O)c(O)c([N+](=O)[O-])c1)c1cccnc1 [Compound 319]
Second: N#C/C(=C\c1cc(O)c(O)c([N+](=O)[O-])c1)c1cncnc1 [Compound 522]
The IC50 of the first is lower: < 1000 nM for the first, ~1000 nM for the second. The first is the more potent here.

`Cc1ccc(/C(C#N)=C/c2cc(O)c(O)c([N+](=O)[O-])c2)nc1` [Compound 502] and `N#C/C(=C\c1cc(O)c(O)c([N+](=O)[O-])c1)c1c[n+]([O-])ccn1` [Compound 520] cannot be ordered by IC50: < 1000 nM for the first, < 1000 nM for the second.

Going from `N#C/C(C(=O)N1CCCOC1)=C(/O)c1cc(O)c(O)c([N+](=O)[O-])c1` [Compound 715] to `N#C/C(C(=O)N1CCC1)=C(/N)c1cc(O)c(O)c([N+](=O)[O-])c1` [Compound 701N, (Z)-3-amino-2-(azetidine-1-carbonyl)-3-(3,4-dihydroxy-5-nitrophenyl)acrylonitrile], the IC50 rises from < 1000 nM to > 1000 nM.

Compared with `N#C/C(=C\c1cc(O)c(O)c([N+](=O)[O-])c1)C(=O)NO` [Compound 664], `N#C/C(=C\c1cc(O)c(O)c([N+](=O)[O-])c1)C(=O)NCCO` [Compound 688, (E)-2-cyano-3-(3,4-dihydroxy-5-nitrophenyl)-N-(2-hydroxyethyl)acrylamide] is higher in IC50: ~1000 nM for the first, > 1000 nM for the second. The first is the more potent here.

First: N#C/C(=C\c1cc(O)c(O)c([N+](=O)[O-])c1)C(=O)NC1COC1 [Compound 713]
Second: CC(NC(=O)/C(C#N)=C/c1cc(O)c(O)c([N+](=O)[O-])c1)C(=O)O (stereo not shown) [Compound 712]
The IC50 of the first is lower: < 1000 nM for the first, ~1000 nM for the second.

`N#C/C(=C\c1cc(O)c(O)c([N+](=O)[O-])c1)C(=O)c1cscn1` [Compound 698] and `N#C/C(=C\c1cc(O)c(O)c([N+](=O)[O-])c1)C(=O)c1cc(O)no1` [Compound 675, (E)-3-(3,4-dihydroxy-5-nitrophenyl)-2-(3-hydroxyisoxazole-5-carbonyl)acrylonitrile] cannot be ordered by IC50: > 1000 nM for the first, > 1000 nM for the second.

`N#C/C(C(=O)Nc1cnccn1)=C(/O)c1cc(O)c(O)c([N+](=O)[O-])c1` [Compound 722] and `N#C/C(C(=O)Nc1ncns1)=C(/O)c1cc(O)c(O)c([N+](=O)[O-])c1` [Compound 668, 2-cyano-3-(3,4-dihydroxy-5-nitrophenyl)-3-hydroxy-N-(1,2,4-thiadiazol-5-yl)acrylamide] cannot be ordered by IC50: < 1000 nM for the first, < 1000 nM for the second.

First: N#CC(=Cc1cc(O)c(O)c([N+](=O)[O-])c1)c1ccc[n+]([O-])c1 (stereo in doubt) [Compound 518, (E)-3-(1-cyano-2-(3,4-dihydroxy-5-nitrophenyl)vinyl)pyridine 1-oxide]
Second: N#CC(=Cc1cc(O)c(O)c([N+](=O)[O-])c1)c1cccnn1 (stereo in doubt) [Compound 505, (E)-3-(3,4-dihydroxy-5-nitrophenyl)-2-(pyridazin-3-yl)acrylonitrile]
The IC50 of the first is higher: > 1000 nM for the first, < 1000 nM for the second. The second is the more potent here.

First: COc1cc(/C(O)=C(\C#N)c2cnccn2)cc([N+](=O)[O-])c1O [Compound 524]
Second: N#C/C(=C(/N)c1cc(O)c(O)c([N+](=O)[O-])c1)c1cnc(C(=O)O)cn1 [Compound 697N]
The IC50 of the first is higher: ~1000 nM for the first, < 1000 nM for the second.

First: N#C/C(C(=O)NC1CC1)=C(/O)c1cc(O)c(O)c([N+](=O)[O-])c1 [Compound 692, (Z)-2-cyano-N-cyclopropyl-3-(3,4-dihydroxy-5-nitrophenyl)-3-hydroxyacrylamide]
Second: N#C/C(C(=O)NC1CC1)=C(/N)c1cc(O)c(O)c([N+](=O)[O-])c1 [Compound 692N, (Z)-3-amino-2-cyano-N-cyclopropyl-3-(3,4-dihydroxy-5-nitrophenyl)acrylamide]
The IC50 of the first is lower: < 1000 nM for the first, > 1000 nM for the second.

`N#C/C(=C\c1cc(O)c(O)c([N+](=O)[O-])c1)C(=O)N1CCOCC1` [Compound 382] and `N#C/C(=C\c1cc(O)c(O)c([N+](=O)[O-])c1)C(=O)N1CCCC1` [Compound 317] cannot be ordered by IC50: > 1000 nM for the first, > 1000 nM for the second.

`N#C/C(=C(/O)c1cc(O)c(O)c([N+](=O)[O-])c1)c1nc2ccccc2s1` [Compound 359] and `N#C/C(=C\c1cc(O)c(O)c([N+](=O)[O-])c1)C(=O)Nc1nc2ccccc2s1` [Compound 333] cannot be ordered by IC50: > 1000 nM for the first, > 1000 nM for the second.

`N#C/C(=C\c1cc(O)c(O)c([N+](=O)[O-])c1)c1ncns1` [Compound 656, (E)-3-(3,4-dihydroxy-5-nitrophenyl)-2-(1,2,4-thiadiazol-5-yl)acrylonitrile] and `N#C/C(=C\c1cc(O)c(O)c([N+](=O)[O-])c1)c1nc(C(=O)O)cs1` [Compound 666, (E)-2-(1-cyano-2-(3,4-dihydroxy-5-nitrophenyl)vinyl)thiazole-4-carboxylic Acid] cannot be ordered by IC50: < 1000 nM for the first, < 1000 nM for the second.

Going from `CCNC(=O)/C(C#N)=C(\N)c1cc(O)c(O)c([N+](=O)[O-])c1` [Compound 691N, (Z)-3-amino-2-cyano-3-(3,4-dihydroxy-5-nitrophenyl)-N-ethylacrylamide] to `CCNC(=O)/C(C#N)=C(\O)c1cc(O)c(O)c([N+](=O)[O-])c1` [Compound 691, (Z)-2-cyano-3-(3,4-dihydroxy-5-nitrophenyl)-N-ethyl-3-hydroxyacrylamide], the IC50 falls from ~1000 nM to < 1000 nM.

`N#C/C(=C\c1cc(O)c(O)c([N+](=O)[O-])c1)C(=O)Nc1cccc(Cl)c1` [Compound 365] and `N#C/C(=C\c1cc(O)c(O)c([N+](=O)[O-])c1)C(=O)Nc1ccccc1` [Compound 318] are the same in IC50: ~1000 nM for the first, ~1000 nM for the second.

`N#C/C(=C\c1cc(O)c(O)c([N+](=O)[O-])c1)C(=O)N[C@@H](CO)C(=O)O` [Compound 693, (S,E)-2-(2-cyano-3-(3,4-dihydroxy-5-nitrophenyl)acrylamido)-3-hydroxypropanoic Acid] and `N#C/C(=C\c1cc(O)c(O)c([N+](=O)[O-])c1)C(=O)N1CCC[C@H]1C(=O)O` [Compound 702, (S,E)-1-(2-cyano-3-(3,4-dihydroxy-5-nitrophenyl)acryloyl)pyrrolidine-2-carboxylic Acid] are the same in IC50: ~1000 nM for the first, ~1000 nM for the second.

`N#C/C(=C\c1cc(O)c(O)c([N+](=O)[O-])c1)C(=O)c1nc2ccccc2[nH]1` [Compound 394, 2-(1H-benzo[d]imidazole-2-carbonyl)-3-(3,4-dihydroxy-5-nitrophenyl)acrylo-nitrile] and `N#C/C(=C\c1cc(O)c(O)c([N+](=O)[O-])c1)C(=O)NCc1ccccc1` [Compound 366] cannot be ordered by IC50: > 1000 nM for the first, > 1000 nM for the second.
